Source: patent US20260234167A1, “SOLID STATE FORMS OF DELGOCITINIB AND PROCESS THEREOF” (ASSIA CHEMICAL INDUSTRIES LTD., priority 2023, published 2026)

How the values were obtained:
Format in all cases: physicochemical
[1] = Storage stability at different relative humidities and temperatures in packed bags, XRPD after 1, 2, 3 and 6 months
Method: Powder X-ray Diffraction was performed on an X-Ray powder diffractometer Bruker D8 Advance; CuK radiation (λ=1.5418 Å); Lynx eye detector; laboratory temperature 22-25° C.; PMMA specimen holder ring. Prior to analysis, the samples were gently ground by means of mortar and pestle in order to obtain a fine powder. The ground sample was adjusted into a cavity of the sample holder and the surface of the sample was smoothed by means of a cover glass.
Measurement parameters: Scan range: 2-40 degrees 2-theta; Scan mode: continuous; Step size: 0.05 degrees; Time per step: 0.5 s; Sample spin: 30 rpm; Sample holder: PMMA specimen holder ring with silicon low background.
Samples of Delgocitinib polymorph forms according to the disclosure were subjected to conditions of different relative humidities at different temperatures. Forms DL1 was kept in low-density polyethylene bag (twist and tied) covered by triple laminated bag (heat and sealed). Forms DL2, DL3, DL10 and DL11 were kept in low-density polyethylene bag (twist and tied) and covered by triple laminated bag (heat and sealed), while 2 gram silica gel sachet was added in between the two bags.

[2] = Storage stability at different relative humidities at ambient temperature, XRPD after 7 days; conditions: for XRPD after storage at different relative humidities for 7 days: ambient temperature
Method: Powder X-ray Diffraction was performed on an X-Ray powder diffractometer Bruker D8 Advance; CuK radiation (λ=1.5418 Å); Lynx eye detector; laboratory temperature 22-25° C.; PMMA specimen holder ring. Prior to analysis, the samples were gently ground by means of mortar and pestle in order to obtain a fine powder. The ground sample was adjusted into a cavity of the sample holder and the surface of the sample was smoothed by means of a cover glass. Measurement parameters: Scan range: 2-40 degrees 2-theta; Scan mode: continuous; Step size: 0.05 degrees; Time per step: 0.5 s; Sample spin: 30 rpm; Sample holder: PMMA specimen holder ring with silicon low background. Samples of crystalline forms of Delgocitinib according to the disclosure, were subjected to conditions of different relative humidities at ambient temperature. XRPD analysis was performed on the samples after 7 days.

[3] = Grinding experiments (strong grinding in mortar with pestle for 2 minutes), XRPD after grinding; conditions: for XRPD after grinding: about 20 mg ground in mortar with pestle for 2 minutes
Method: Powder X-ray Diffraction was performed on an X-Ray powder diffractometer Bruker D8 Advance; CuK radiation (λ=1.5418 Å); Lynx eye detector; laboratory temperature 22-25° C.; PMMA specimen holder ring. Prior to analysis, the samples were gently ground by means of mortar and pestle in order to obtain a fine powder. The ground sample was adjusted into a cavity of the sample holder and the surface of the sample was smoothed by means of a cover glass. Measurement parameters: Scan range: 2-40 degrees 2-theta; Scan mode: continuous; Step size: 0.05 degrees; Time per step: 0.5 s; Sample spin: 30 rpm; Sample holder: PMMA specimen holder ring with silicon low background. Samples of Delgocitinib forms according to the disclosure were subjected to strong grinding. In these experiments, about 20 mg of the sample was placed in a mortar and ground with a pestle for 2 minutes. XRPD analysis was performed on each sample after the grinding experiment (Table 4): […]

[4] = Stability to compression (2 tons, hydraulic press), XRPD after 2 minutes
Method: Powder X-ray Diffraction was performed on an X-Ray powder diffractometer Bruker D8 Advance; CuK radiation (λ=1.5418 Å); Lynx eye detector; laboratory temperature 22-25° C.; PMMA specimen holder ring. Prior to analysis, the samples were gently ground by means of mortar and pestle in order to obtain a fine powder. The ground sample was adjusted into a cavity of the sample holder and the surface of the sample was smoothed by means of a cover glass. Measurement parameters: Scan range: 2-40 degrees 2-theta; Scan mode: continuous; Step size: 0.05 degrees; Time per step: 0.5 s; Sample spin: 30 rpm; Sample holder: PMMA specimen holder ring with silicon low background. Samples of Delgocitinib were subjected to pressures of 2 tons (Atlas® Autopress hydraulic press, set to 2 tons). XRPD analysis was carried out on the samples after 2 minutes.

SMILES: C[C@H]1CN(C(=O)CC#N)[C@]12CCN(c1ncnc3[nH]ccc13)C2 [Form DL3, 3-[(3S,4R)-3-methyl-7-(7H-pyrrolo[2,3-d]pyrimidin-4-yl)-1,7-diazaspiro[3.4]octan-1-yl]-3-oxopropanenitrile]
- XRPD after storage at 25° C. at 60% RH ([1]; 1 month, listed as DL3): DL3
- XRPD after storage at 25° C. at 60% RH ([1]; 2 months, listed as DL3): DL3
- XRPD after storage at 25° C. at 60% RH ([1]; 3 months, listed as DL3): DL3
- XRPD after storage at 25° C. at 60% RH ([1]; 6 months, listed as DL3): DL3
- XRPD after storage at 40° C. at 75% RH ([1]; 1 month, listed as DL3): DL3
- XRPD after storage at 40° C. at 75% RH ([1]; 2 months, listed as DL3): DL3
- XRPD after storage at 40° C. at 75% RH ([1]; 3 months, listed as DL3): DL3
- XRPD after storage at 40° C. at 75% RH ([1]; 6 months, listed as DL3): DL3
- XRPD after storage at different relative humidities for 7 days ([2]; 20% relative humidity, listed as DL3): DL3
- XRPD after storage at different relative humidities for 7 days ([2]; 40% relative humidity, listed as DL3): DL3
- XRPD after storage at different relative humidities for 7 days ([2]; 60% relative humidity, listed as DL3): DL3
- XRPD after storage at different relative humidities for 7 days ([2]; 80% relative humidity, listed as DL3): DL3
- XRPD after grinding ([3]; listed as DL3): DL3
- XRPD after compression force (2 tons for 2 minutes) ([4]; listed as DL3): DL3

SMILES: C[C@H]1CN(C(=O)CC#N)[C@]12CCN(c1ncnc3[nH]ccc13)C2 [Form DL10, 3-[(3S,4R)-3-methyl-7-(7H-pyrrolo[2,3-d]pyrimidin-4-yl)-1,7-diazaspiro[3.4]octan-1-yl]-3-oxopropanenitrile]
- XRPD after storage at 25° C. at 60% RH ([1]; 1 month, listed as DL10): DL10
- XRPD after storage at 25° C. at 60% RH ([1]; 2 months, listed as DL10): DL10
- XRPD after storage at 25° C. at 60% RH ([1]; 3 months, listed as DL10): DL10
- XRPD after storage at 25° C. at 60% RH ([1]; 6 months, listed as DL10): DL10
- XRPD after storage at 40° C. at 75% RH ([1]; 1 month, listed as DL10): DL10
- XRPD after storage at 40° C. at 75% RH ([1]; 2 months, listed as DL10): DL10
- XRPD after storage at 40° C. at 75% RH ([1]; 3 months, listed as DL10): DL10
- XRPD after storage at 40° C. at 75% RH ([1]; 6 months, listed as DL10): DL10
- XRPD after storage at different relative humidities for 7 days ([2]; 20% relative humidity, listed as DL10): DL10
- XRPD after storage at different relative humidities for 7 days ([2]; 40% relative humidity, listed as DL10): DL10
- XRPD after storage at different relative humidities for 7 days ([2]; 60% relative humidity, listed as DL10): DL10
- XRPD after storage at different relative humidities for 7 days ([2]; 80% relative humidity, listed as DL10): DL10
- XRPD after grinding ([3]; listed as DL10): DL10
- XRPD after compression force (2 tons for 2 minutes) ([4]; listed as DL10): DL10

SMILES: C[C@H]1CN(C(=O)CC#N)[C@]12CCN(c1ncnc3[nH]ccc13)C2 [Form DL2, 3-[(3S,4R)-3-methyl-7-(7H-pyrrolo[2,3-d]pyrimidin-4-yl)-1,7-diazaspiro[3.4]octan-1-yl]-3-oxopropanenitrile]
- XRPD after storage at 25° C. at 60% RH ([1]; 1 month, listed as DL2): DL2
- XRPD after storage at 25° C. at 60% RH ([1]; 2 months, listed as DL2): DL2
- XRPD after storage at 25° C. at 60% RH ([1]; 3 months, listed as DL2): DL2
- XRPD after storage at 25° C. at 60% RH ([1]; 6 months, listed as DL2): DL2
- XRPD after storage at 40° C. at 75% RH ([1]; 1 month, listed as DL2): DL2
- XRPD after storage at 40° C. at 75% RH ([1]; 2 months, listed as DL2): DL2
- XRPD after storage at 40° C. at 75% RH ([1]; 3 months, listed as DL2): DL2
- XRPD after storage at 40° C. at 75% RH ([1]; 6 months, listed as DL2): DL2
- XRPD after storage at different relative humidities for 7 days ([2]; 20% relative humidity, listed as DL2): DL2
- XRPD after storage at different relative humidities for 7 days ([2]; 40% relative humidity, listed as DL2): DL2
- XRPD after storage at different relative humidities for 7 days ([2]; 60% relative humidity, listed as DL2): DL2
- XRPD after storage at different relative humidities for 7 days ([2]; 80% relative humidity, listed as DL2): DL2
- XRPD after grinding ([3]; listed as DL2): DL2
- XRPD after compression force (2 tons for 2 minutes) ([4]; listed as DL2): DL2

SMILES: C[C@H]1CN(C(=O)CC#N)[C@]12CCN(c1ncnc3[nH]ccc13)C2 [Form DL1, 3-[(3S,4R)-3-methyl-7-(7H-pyrrolo[2,3-d]pyrimidin-4-yl)-1,7-diazaspiro[3.4]octan-1-yl]-3-oxopropanenitrile]
- XRPD after storage at 25° C. at 60% RH ([1]; 1 month, listed as DL1): DL1
- XRPD after storage at 25° C. at 60% RH ([1]; 2 months, listed as DL1): DL1
- XRPD after storage at 25° C. at 60% RH ([1]; 3 months, listed as DL1): DL1
- XRPD after storage at 25° C. at 60% RH ([1]; 6 months, listed as DL1): DL1
- Storage stability (conclusion in words) ([1]; 25° C./60% RH and 40° C./75% RH, up to 6 months): highly storage stable
- XRPD after storage at 40° C. at 75% RH ([1]; 1 month, listed as DL1): DL1
- XRPD after storage at 40° C. at 75% RH ([1]; 2 months, listed as DL1): DL1
- XRPD after storage at 40° C. at 75% RH ([1]; 3 months, listed as DL1): DL1
- XRPD after storage at 40° C. at 75% RH ([1]; 6 months, listed as DL1): DL1
- XRPD after storage at different relative humidities for 7 days ([2]; 20% relative humidity, listed as DL1): DL1
- Stability after exposure to high and low relative humidity conditions (conclusion in words) ([2]; 20-80% relative humidity, at least 7 days): stable
- XRPD after storage at different relative humidities for 7 days ([2]; 40% relative humidity, listed as DL1): DL1
- XRPD after storage at different relative humidities for 7 days ([2]; 60% relative humidity, listed as DL1): DL1
- XRPD after storage at different relative humidities for 7 days ([2]; 80% relative humidity, listed as DL1): DL1
- XRPD after grinding ([3]; listed as DL1): DL1
- Resistance to polymorphic changes on grinding (conclusion in words) ([3]; strong grinding, 2 minutes): resistant to polymorphic changes
- XRPD after compression force (2 tons for 2 minutes) ([4]; listed as DL1): DL1
- Stability under high pressure conditions (conclusion in words) ([4]; 2 tons, 2 minutes): stable under high pressure conditions

SMILES: C[C@H]1CN(C(=O)CC#N)[C@]12CCN(c1ncnc3[nH]ccc13)C2 [Form DL11, 3-[(3S,4R)-3-methyl-7-(7H-pyrrolo[2,3-d]pyrimidin-4-yl)-1,7-diazaspiro[3.4]octan-1-yl]-3-oxopropanenitrile]
- XRPD after storage at 25° C. at 60% RH ([1]; 1 month, listed as DL11): DL11
- XRPD after storage at 25° C. at 60% RH ([1]; 2 months, listed as DL11): DL11
- XRPD after storage at 25° C. at 60% RH ([1]; 3 months, listed as DL11): DL11
- XRPD after storage at 25° C. at 60% RH ([1]; 6 months, listed as DL11): DL11
- XRPD after storage at 40° C. at 75% RH ([1]; 1 month, listed as DL11): DL11
- XRPD after storage at 40° C. at 75% RH ([1]; 2 months, listed as DL11): DL11
- XRPD after storage at 40° C. at 75% RH ([1]; 3 months, listed as DL11): DL11
- XRPD after storage at 40° C. at 75% RH ([1]; 6 months, listed as DL11): DL11
- XRPD after storage at different relative humidities for 7 days ([2]; 20% relative humidity, listed as DL11): DL11
- XRPD after storage at different relative humidities for 7 days ([2]; 40% relative humidity, listed as DL11): DL11
- XRPD after storage at different relative humidities for 7 days ([2]; 60% relative humidity, listed as DL11): DL11
- XRPD after storage at different relative humidities for 7 days ([2]; 80% relative humidity, listed as DL11): DL11
- XRPD after grinding ([3]; listed as DL11): DL11
- XRPD after compression force (2 tons for 2 minutes) ([4]; listed as DL11): DL11
